Measurements from patent US20150031892A1, “SPHINGOLIPID METABOLITE MIMETICS” (Zhejiang University, priority 2012, published 2015).

How the values were obtained:
Assay type in all cases: cell-based
SiHa = assay: MTT cytotoxicity assay, SiHa (ovarian cancer as headed); conditions: Homo sapiens, Cervical Cancer SiHa
SW480 = assay: MTT cytotoxicity assay, SW480 (colon cancer); conditions: Homo sapiens
SA = assay: MTT cytotoxicity assay, SA (pancreatic cancer as headed)
Procedure: (§1) Cell survival after exposure to the sphingolipid metabolite mimetics was examined by MTT cytotoxicity assay. HepG2, A431, HeLa, MCF-7 and SA cells (7000 cells/well) were seeded in each well of a 96-well plate for 24 h. New medium was added to give final concentrations of 0 to 200 μM of the sphingolipid metabolite mimetics. Then, 50 μl of 1 mg/ml 3-(4,5-dimethylthiazol-2-yl)-2,5-diphenyltetrazolium bromide (MTT, Sigma-Aldrich Chemical) was added to each well for 4 h incubation at 37° C. The purple formazan formed was then solubilized by DMSO and absorbance at 570 nm was read by a microplate reader (Molecular Devices, Sunnyvale, Calif.).

HepG2 = assay: MTT cytotoxicity assay, HepG2 (liver cancer); conditions: Homo sapiens
Procedure: as §1

A431 = assay: MTT cytotoxicity assay, A431 (squamous carcinoma); conditions: Homo sapiens, A-431
Procedure: as §1

[1] = system: multiple types of cancer cells; assay: MTT cytotoxicity, statements over several cancer cell lines; conditions: for direct anti-cancer cell activity: summary statement
Procedure: as §1

SW620 = assay: MTT cytotoxicity assay, SW620 (colon cancer); conditions: Homo sapiens, SW-620
MCF-7 = assay: MTT cytotoxicity assay, MCF-7 (breast cancer); conditions: Homo sapiens, MCF7; Breast Cancer MCF-7, MTT
Procedure: as §1

SMILES | IC50 (SiHa) | IC50 (SW480) | IC50 (SA) | IC50 (HepG2) | IC50 (A431) | IC50 ([1]; multiple types of cancer cells, read-out: IC50) | direct anti-cancer cell activity [1] | IC50 (SW620) | IC50 (MCF-7)
CCCCCCCCCCCCNC(=O)[C@@H](NC(=O)c1cc2ccccc2[nH]1)[C@@H](C)O [NZJU47, N-((2S,3R)-3-hydroxy-1-oxo-1-(dodecylamino)butan-2-yl)-indole-2-carboxamide] | 21.25 ± 0.01 µM | 10.2 ± 0.73 µM | 12.3 ± 2.75 µM | 12 ± 2.38 µM | 10.3 ± 2.78 µM | < 20 µM | direct anti-cancer cell activity |  | 
CCCCCCCCCCCCCCNC(=O)[C@@H](NS(=O)(=O)c1cccs1)[C@@H](C)O [NZJU60, N-((2S,3R)-3-hydroxy-1-oxo-1-(tetradecylamino)butan-2-yl)-2-thiophene sulfonamide] | 20.4 ± 2.47 µM | 11.8 ± 1.25 µM | 11.6 ± 2.2 µM | 21.6 ± 2.05 µM | 22 ± 0.56 µM |  | direct anti-cancer cell activity |  | 
C/C=C/C=C/C(=O)N[C@H](C(=O)NCCCCCCCCCCCC)[C@@H](C)O [NZJU10, (2E,4E)-N-((2S,3R)-3-hydroxy-1-oxo-1-(dodecylamino)butan-2-yl)-2,4-hexadienoic acid amide] | > 200 µM | > 200 µM | 189 ± 12.2 µM | > 400 µM | 171 ± 12.1 µM |  |  | ≥ 200 µM | 37.1 ± 4.11 µM
CCCCCCCCCCCCCCCCCCNC(=O)[C@@H](NC(=O)/C=C/c1ccccc1)[C@@H](C)O [NZJU26, (E)-N-((2S,3R)-3-hydroxy-1-oxo-1-(octadecylamino)butan-2-yl)-3-phenyl acrylic acid amide] | 35.9 ± 2.64 µM | 123 µM | 47.1 ± 0.54 µM | 128 ± 9.04 µM | 177 ± 7.17 µM |  | direct anti-cancer cell activity | ≥ 200 µM | 39.2 ± 2.21 µM
CCCCCCCCCCCCNC(=O)[C@@H](NC(=O)/C=C/c1ccccc1)[C@@H](C)O [NZJU24, (E)-N-((2S,3R)-3-hydroxy-1-oxo-1-(dodecylamino)butan-2-yl)-3-phenyl acrylic acid amide] | > 200 µM | > 200 µM | 154.8 ± 1.16 µM | > 200 µM | > 200 µM |  |  | ≥ 200 µM | > 200 µM
CCCCCCCCCCCCCCNC(=O)[C@@H](NS(=O)(=O)c1ccc2ccccc2c1)[C@@H](C)O [NZJU62, N-((2S,3R)-3-hydroxy-1-oxo-1-(tetradecylamino)butan-2-yl)-2-naphthylsulfonamide] | 11.1 ± 1.39 µM | 5.76 ± 1.02 µM | 10.2 ± 0.3 µM | 11.4 ± 1.11 µM | 19.6 ± 2.16 µM |  | direct anti-cancer cell activity |  | 
CCCCCCCCCCCCCCCCCCNC(=O)[C@@H](NC(=O)c1ccccc1)[C@@H](C)O [NZJU18, N-((2S,3R)-3-hydroxy-1-oxo-1-(octadecylamino)butan-2-yl)-benzamide] | 38.2 ± 2.52 µM | 36.47 ± 0.23 µM | > 400 µM | > 400 µM | 113 ± 7.87 µM |  |  | ≥ 200 µM | 31.7 ± 6.55 µM
CCCCCCCCCCCCCCCCCCNC(=O)[C@@H](NC(=O)c1cccs1)[C@@H](C)O [NZJU35, N-((2S,3R)-3-hydroxy-1-oxo-1-(octadecylamino)butan-2-yl)-2-thiophene carboxamide] | 117 ± 3.9 µM | 89 µM | 53.5 ± 5.32 µM | 92 ± 7.76 µM | 33.3 ± 3.32 µM |  |  | ≥ 200 µM | 25.7 ± 0.47 µM
CCCCCCCCCCCCCCNC(=O)[C@@H](NC(=O)/C=C/c1ccccc1)[C@@H](C)O [NZJU25, (E)-N-((2S,3R)-3-hydroxy-1-oxo-1-(tetradecylamino)butan-2-yl)-3-phenyl acrylic acid amide] | 35.8 ± 0.68 µM | 86.9 µM | 80.9 ± 1.9 µM | 150 ± 4.37 µM | 64.9 ± 4.87 µM |  |  | ≥ 200 µM | 64.6 ± 4.54 µM
CCCCCCCCCCCCCCCCCCNC(=O)[C@@H](NC(=O)c1ccco1)[C@@H](C)O [NZJU15, N-((2S,3R)-3-hydroxy-1-oxo-1-(octadecylamino)butan-2-yl)-Furan-2-carboxamide] | 13.3 ± 1.05 µM | 24.4 ± 0.7 µM | 52.6 ± 6.02 µM | 42.3 ± 3.73 µM | 19.9 ± 0.45 µM |  |  |  | 21.4 ± 2.4 µM
CCCCCCCCNC(=O)[C@@H](NC(=O)c1ccco1)[C@@H](C)O [NZJU40, N-((2S,3R)-3-hydroxy-1-oxo-1-(octylamino)butan-2-yl)-Furan-2-carboxamide] | 124 ± 8.78 µM | 194 µM | 64.65 ± 0.5 µM | 192 ± 11.1 µM | 64.5 ± 0.78 µM |  |  | ≥ 200 µM | 91.8 ± 4.21 µM
C/C=C/C=C/C(=O)N[C@H](C(=O)NCCCCCCCCCCCCCC)[C@@H](C)O [NZJU11, (2E,4E)-N-((2S,3R)-3-hydroxy-1-oxo-1-(tetradecylamino)butan-2-yl)-2,4-hexadienoic acid amide] | > 200 µM | > 200 µM | 184 ± 1.9 µM | > 400 µM | > 200 µM |  |  | ≥ 200 µM | 27.76 ± 0.14 µM
CCCCCCCCCCCCCCNC(=O)[C@@H](NS(=O)(=O)c1ccc(C)cc1)[C@@H](C)O [NZJU57, N-((2S,3R)-3-hydroxy-1-oxo-1-(tetradecylamino)butan-2-yl)-4-methylbenzsulfonamide] | 19.2 ± 2.14 µM | 11.8 ± 1.38 µM | 10.9 ± 1.25 µM | 10.9 ± 0.54 µM | 12 ± 1.87 µM |  | direct anti-cancer cell activity |  | 
CCCCCCCCNC(=O)[C@@H](NC(=O)/C=C/c1ccccc1)[C@@H](C)O [NZJU42, (E)-N-((2S,3R)-3-hydroxy-1-oxo-1-(octylamino)butan-2-yl)-3-phenyl acrylic acid amide] | 41.4 ± 5.96 µM | 62.7 µM | 25.6 ± 4.41 µM | 55.6 ± 0.64 µM | 36 ± 3.36 µM |  |  | 61.35 ± 0.27 µM | 35.06 ± 0.2 µM
CCCCCCCCCCCCCCNC(=O)[C@@H](N)[C@@H](C)O [NZJU46, (2S,3R)-2-Amino-3-hydroxy-N-tetradecylbutanamide] | 11 ± 1.39 µM |  | 11 ± 1.39 µM |  | 14.6 ± 0.76 µM |  | direct anti-cancer cell activity | 18.7 ± 3.81 µM | 10.7 ± 0.98 µM
CCCCCCCCCCCCCCNC(=O)[C@@H](NC(=O)c1ccco1)[C@@H](C)O [NZJU14, N-((2S,3R)-3-hydroxy-1-oxo-1-(tetradecylamino)butan-2-yl)-Furan-2-carboxamide] | 127 ± 7.41 µM | 110 ± 5.03 µM | 148 ± 11.6 µM | > 400 µM | 190 ± 6.86 µM |  |  | ≥ 200 µM | 105 ± 5.03 µM
CCCCCCCCCCCCCCCCCCNC(=O)[C@@H](NC(=O)c1nccc2ccccc12)[C@@H](C)O [NZJU32, N-((2S,3R)-3-hydroxy-1-oxo-1-(octadecylamino)butan-2-yl)-isoquinoline-1-carboxamide] | 51.2 ± 3.46 µM | 30.7 µM | 49.1 ± 4.72 µM | 96.9 ± 6.77 µM | 44.1 ± 2.02 µM |  |  | 136 ± 13.3 µM | 30.8 ± 0.67 µM
CCCCCCCCCCCCCCNC(=O)[C@@H](NC(=O)c1ccccc1)[C@@H](C)O [NZJU17, N-((2S,3R)-3-hydroxy-1-oxo-1-(tetradecylamino)butan-2-yl)-benzamide] | > 200 µM | ≥ 200 µM | 56 ± 7.43 µM | 54.2 ± 3.95 µM | 118 ± 9.09 µM |  |  | ≥ 200 µM | 24.8 ± 6.75 µM
CCCCCCCCCCCCCCCCCCNC(=O)[C@@H](N)[C@@H](C)O [NZJU4, (2S,3R)-2-Amino-3-hydroxy-N-octadecylbutanamide] | 39.5 ± 0.88 µM | 27.5 ± 3.03 µM |  | 44.5 ± 3.49 µM | 21.3 ± 1.72 µM |  |  | 21.4 ± 1.24 µM | 27.4 ± 1.8 µM
C/C=C/C=C/C(=O)N[C@H](C(=O)NCCCCCCCCCCCCCCCCCC)C(C)O (stereo in doubt) [NZJU12, (2E,4E)-N-((2S,3R)-3-hydroxy-1-oxo-1-(octadecylamino)butan-2-yl)-2,4-hexadienoic acid amide] | > 200 µM | 196 µM | > 200 µM | 284 ± 8.3 µM | 187 ± 2.41 µM |  |  | ≥ 200 µM | 79.6 ± 2.34 µM
CCCCCCCCNC(=O)[C@@H](NC(=O)c1nccc2ccccc12)[C@@H](C)O [NZJU43, N-((2S,3R)-3-hydroxy-1-oxo-1-(octylamino)butan-2-yl)-isoquinoline-1-carboxamide] | 66 ± 5.48 µM |  | 22.9 ± 2.59 µM | 88.2 ± 1.92 µM | 26.9 ± 2.81 µM |  |  | 67.75 ± 0.099 µM | 63.2 ± 4.73 µM
CCCCCCCCCCCCCCCCCCNC(=O)[C@@H](NC(=O)c1cc2ccccc2o1)[C@@H](C)O [NZJU38, N-((2S,3R)-3-hydroxy-1-oxo-1-(octadecylamino)butan-2-yl)-benzofuran-2-carboxamide] | > 200 µM | > 200 µM | 162 ± 4.55 µM | > 200 µM | 78.8 ± 6.99 µM |  |  |  | 126 ± 7.19 µM
CCCCCCCCCCCCCC(=O)N[C@H](C(=O)Nc1ccccc1)[C@@H](C)O [NZJU19, N-((2S,3R)-3-Hydroxy-1-oxo-1-(benzamino)butan-2-yl)-tetradecyl acid amide] | > 200 µM | > 200 µM | > 200 µM | > 400 µM | > 200 µM |  |  | ≥ 200 µM | > 400 µM
